SMILES strings stand for the structures.

The nature of the first data set: logP determination by HPLC (reversed-phase C18), EEC Directive 79/831 Annex V.A8. Conditions: Table 3, compounds of formula (IV); labelled a): acidic range, 0.1% aqueous phosphoric acid, acetonitrile, linear gradient 10% to 90% acetonitrile; 43° C.
For `COC(=O)c1ccc(Cl)c(Cn2nc(SC)n(C)c2=O)c1Cl` [IV-3], the logP entry is “m.p.: 229 °C logP = 2.27^a)”.

Take `CCOc1nn(Cc2c(Cl)ccc(C(=O)OC)c2Cl)c(=O)n1C` [IV-4]: the logP entry was “m.p.: 120 °C logP = 2.38^a)”.

Turning to `COC(=O)c1ccc(Cl)c(Cn2nc(C3CC3)n(C3CC3)c2=O)c1Cl` [IV-5], the logP result was “m.p.: 127 °C logP = 2.55^a)”.

`COC(=O)c1ccc(Cl)c(Cn2nc(OC)n(C)c2=O)c1Cl` [IV-6]: the logP entry was “m.p.: 121 °C logP = 2.04^a)”.

As for `COC(=O)c1ccc(Cl)c(Cn2nc(OC(C)C)n(C)c2=O)c1Cl` [IV-7], the logP result is “m.p.: 68 °C logP = 2.73^a)”.

As for `COC(=O)c1ccc(Cl)c(Cn2nc(OCC(F)(F)F)n(C)c2=O)c1Cl` [IV-8], the logP entry was “m.p.: 129 °C logP = 2.72^a)”.

Turning to `COC(=O)c1ccc(Cl)c(Cn2nc(Br)n(C)c2=O)c1Cl` [IV-9], the logP entry was “m.p.: 164 °C logP = 2.18^a)”.

On to `COC(=O)c1ccc(Cl)c(Cn2ncn(C)c2=O)c1Cl` [IV-10], for which the logP entry was “m.p.: 158 °C logP = 1.55^a)”.

As to `COC(=O)c1ccc(Cl)c(Cn2nc(C3CC3)n(C)c2=O)c1Cl` [IV-11], the logP result is “m.p.: 106 °C logP = 2.16^a)”.

Regarding `COC(=O)c1ccc(Cl)c(Cn2nc(N(C)C)n(C)c2=O)c1Cl` [IV-12], the logP entry was “m.p.: 126 °C logP = 2.11^a)”.

As to `COC(=O)c1ccc(Cl)c(Cn2nc(C)n(C)c2=O)c1Cl` [IV-13], the logP entry was “m.p.: 146 °C logP = 1.65^a)”.

With `COC(=O)c1ccc(Cl)c(Cn2nc3n(c2=O)CCCC3)c1Cl` [IV-14], the logP entry was “m.p.: 178 °C logP = 1.86^a)”.

With `COC(=O)c1ccc(Cl)c(Cn2nc(OC)n(C3CC3)c2=O)c1Cl` [IV-15], the logP result is “m.p.: 97 °C logP = 2.36^a)”.

Regarding `CCOc1nn(Cc2c(Cl)ccc(C(=O)OC)c2Cl)c(=O)n1C1CC1` [IV-16], the logP entry is “m.p.: 99 °C logP = 2.73^a)”.

In the case of `COC(=O)c1ccc(Cl)c(Cn2nc(OC(C)C)n(C3CC3)c2=O)c1Cl` [IV-17], the logP result was “m.p.: 56 °C logP = 3.08^a)”.

Take `COC(=O)c1ccc(Cl)c(Cn2nc(OCC(F)(F)F)n(C3CC3)c2=O)c1Cl` [IV-18]: the logP entry was “m.p.: 102 °C logP = 3.05^a)”.

For `COC(=O)c1ccc(Cl)c(Cn2nc(SC)n(C3CC3)c2=O)c1Cl` [IV-19], the logP result was “m.p.: 131 °C logP = 2.70^a)”.

Turning to `COC(=O)c1ccc(Cl)c(Cn2nc(C)n(C3CC3)c2=O)c1Cl` [IV-20], the logP result is “m.p.: 135 °C logP = 1.97^a)”.

Turning to `COC(=O)c1ccc(Cl)c(Cn2nc(N(C)C)n(C3CC3)c2=O)c1Cl` [IV-21], the logP result is “m.p.: 143 °C logP = 2.42^a)”.

Regarding `CCOn1c(CC)nn(Cc2c(Cl)ccc(C(=O)OC)c2Cl)c1=O` [IV-22], the logP entry is “m.p.: 85 °C logP = 2.58^a)”.

For `COC(=O)c1ccc(Cl)c(CN2CCN(C)C2=O)c1Cl` [IV-23], the logP result is reported as “logP = 1.98^a)”.

Take `COC(=O)c1ccc(Cl)c(CN2CCCN(C)C2=O)c1Cl` [IV-24]: the logP result is listed as “logP = 2.07^a)”.

Turning to `COC(=O)c1ccc(Cl)c(CN2C(=O)c3ccccc3S2(=O)=O)c1Cl` [IV-25], the logP entry is “m.p.: 157 °C logP = 2.94^a)”.

With `CCOC(=O)c1ccc(S(C)(=O)=O)cc1CN1C(=O)CCC1=O` [IV-33], the logP result is “logP = 1.53^a)”.

As to `CCOC(=O)c1ccc(Br)cc1Cn1nc(CC)n(OCC)c1=O` [IV-34], the logP result is given as “logP = 3.24^a)”.

Consider `CCOC(=O)c1ccc(Br)cc1Cn1nc(C(F)(F)F)n(C)c1=O` [IV-35], for which the logP result is “logP = 3.40^a)”.

For `CCOC(=O)c1ccc(F)cc1Cn1nc(SC)n(C)c1=O` [IV-37], the logP result was “logP = 2.45^a)”.

On to `CCOC(=O)c1ccc(Cl)cc1Cn1nc(OCC)n(C2CC2)c1=O` [IV-42], for which the logP result is on record as “logP = 3.23^a)”.

In the case of `CCOC(=O)c1ccc(Cl)cc1Cn1nc(C(F)(F)F)n(C)c1=O` [IV-43], the logP result is listed as “logP = 3.31^a)”.

Consider `CCOC(=O)c1ccc(Cl)cc1Cn1nc(CC)n(OCC)c1=O` [IV-44], for which the logP entry was “logP = 3.14^a)”.

Turning to `CCOC(=O)c1ccc([N+](=O)[O-])cc1Cn1nc(OCC)n(C2CC2)c1=O` [IV-45], the logP result is on record as “logP = 2.42^a)”.

With `CCOC(=O)c1ccc([N+](=O)[O-])cc1Cn1nc(SC)n(C)c1=O` [IV-46], the logP result was “logP = 2.82^a)”.

As for `CCOC(=O)c1ccc(C(F)(F)F)cc1Cn1nc(OCC)n(C2CC2)c1=O` [IV-47], the logP result was “logP = 3.48^a)”.

Consider `CCOC(=O)c1ccc(C(F)(F)F)cc1Cn1nc(CC)n(OCC)c1=O` [IV-48], for which the logP result was “logP = 3.38^a)”.

Consider `CCOC(=O)c1ccc(C(F)(F)F)cc1Cn1nc(SC)n(C)c1=O` [IV-49], for which the logP result is “logP = 3.02^a)”.

For the compound `CCCOC(=O)c1ccc(C(F)(F)F)cc1Cn1nc(OCC)n(C2CC2)c1=O` [IV-50], the logP result is given as “logP = 3.91^a)”.

Consider `CCOC(=O)c1ccc(Br)cc1Cn1nc(OCC)n(C)c1=O` [IV-58], for which the logP result was “logP = 2.95^a)”.

With `CCOC(=O)c1ccc(Br)cc1CN1C(=O)CCC1=O` [IV-60], the logP result was “logP = 2.44^a)”.

For `CCOC(=O)c1ccc(Br)cc1Cn1nc(OC(C)C)n(C)c1=O` [IV-65], the logP result was “logP = 3.34^a)”.

Regarding `CCCOc1nn(Cc2cc(Br)ccc2C(=O)OCC)c(=O)n1C` [IV-66], the logP entry is on record as “logP = 3.38^a)”.

On to `CCOC(=O)c1ccc(Br)cc1Cn1nc(OCC(F)(F)F)n(C)c1=O` [IV-67], for which the logP entry was “logP = 3.31^a)”.

For the compound `CCOC(=O)c1ccc(Br)cc1Cn1nc2n(c1=O)CCC2` [IV-68], the logP entry is “logP = 2.16^a)”.

As for `CCOC(=O)c1ccc(Br)cc1Cn1nc2n(c1=O)CCCC2` [IV-69], the logP result is reported as “logP = 2.41^a)”.

`CCOC(=O)c1ccc(C(F)(F)F)cc1Cn1nc(OC(C)C)n(C)c1=O` [IV-70]: the logP result was “logP = 3.51^a)”.

For the compound `CCCOc1nn(Cc2cc(C(F)(F)F)ccc2C(=O)OCC)c(=O)n1C` [IV-71], the logP result is given as “logP = 3.54^a)”.

Consider `CCOC(=O)c1ccc(Br)cc1CN1CCOC1=O` [IV-72], for which the logP entry is given as “logP = 2.36^a)”.

Take `CCOC(=O)c1ccc(Br)cc1Cn1nc(C)oc1=O` [IV-73]: the logP result was “logP = 2.88^a)”.

Regarding `CCOC(=O)c1ccc(C(F)(F)F)cc1Cn1cnn(C)c1=O` [IV-74], the logP result is listed as “logP = 2.68^a)”.

For the compound `CCOC(=O)c1ccc(Br)cc1Cn1nc(Br)n(C)c1=O` [IV-75], the logP result is reported as “logP = 2.80^a)”.

With `CCOC(=O)c1ccc(C(F)(F)F)cc1Cn1nc(COC)n(C2CC2)c1=O` [IV-77], the logP entry is “logP = 2.88^a)”.

For the compound `CCOC(=O)c1ccc(C(F)(F)F)cc1Cn1nc(COC)n(C)c1=O` [IV-78], the logP result is given as “logP = 2.60^a)”.

In the case of `CCOC(=O)c1ccc(C(F)(F)F)cc1Cn1nc(Br)n(C2CC2)c1=O` [IV-79], the logP result is “logP = 3.35^a)”.

Turning to `CCOC(=O)c1ccc(Br)cc1Cn1nc(SC)n(C)c1=O` [IV-80], the logP result is on record as “logP = 2.86^a)”.

On to `CCOC(=O)c1ccc(Cl)cc1Cn1nc(SC)n(C)c1=O` [IV-81], for which the logP entry was “logP = 2.83^a)”.

On to `CCOC(=O)c1ccc(Br)cc1Cn1nc(N(C)C)n(C)c1=O` [IV-82], for which the logP result is given as “logP = 2.60^a)”.

As to `CCOC(=O)c1ccc(C(F)(F)F)cc1Cn1nc(N(C)C)n(C)c1=O` [IV-85], the logP result is given as “logP = 2.79^a)”.

For the compound `CCOC(=O)c1ccc(C(F)(F)F)cc1CN1C(=O)c2ccccc2S1(=O)=O` [IV-86], the logP entry is given as “logP = 3.67^a)”.

As to `CCOC(=O)c1ccc(C(F)(F)F)cc1CN1C(=O)c2ccccc2C1=O` [IV-87], the logP result was “logP = 3.80^a)”.

Consider `CCOC(=O)c1ccc(S(C)(=O)=O)cc1Cn1nc(SC)n(C)c1=O` [IV-89], for which the logP result is listed as “logP = 1.82^a)”.

Regarding `CCOC(=O)c1ccc(C(F)(F)F)cc1Cn1cc(C(F)(F)F)c(=O)[nH]c1=O` [IV-90], the logP result is “logP = 2.93^a)”.

As to `CCOC(=O)c1ccc(C(F)(F)F)cc1Cn1nc(C)oc1=O` [IV-92], the logP entry is listed as “logP = 3.04^a)”.

As for `CCOC(=O)c1ccc(C(F)(F)F)cc1Cn1nc(OCC(F)(F)F)n(C)c1=O` [IV-93], the logP result was “logP = 3.45^a)”.

In the case of `CCOC(=O)c1ccc(F)cc1Cn1nc(N(C)C)n(C)c1=O` [IV-94], the logP result is reported as “logP = 2.21^a)”.

In the case of `CCCOc1nn(Cc2cc(F)ccc2C(=O)OCC)c(=O)n1C` [IV-95], the logP result is recorded as “logP = 2.96^a)”.

Regarding `CCOC(=O)c1ccc(F)cc1Cn1nc(COC)n(C)c1=O` [IV-96], the logP entry is on record as “logP = 2.05^a)”.

`CCOC(=O)c1ccc(F)cc1Cn1nc(OC)n(C2CC2)c1=O` [IV-97]: the logP entry is on record as “logP = 2.50^a)”.

For `CCOC(=O)c1ccc(F)cc1Cn1nc(OCC)n(C2CC2)c1=O` [IV-98], the logP entry is given as “logP = 2.89^a)”.

As to `CCOC(=O)c1ccc(C(F)(F)F)cc1CN1N=C(C)C(C)(C)C1=O` [IV-99], the logP result is “logP = 2.91^a)”.

As to `CCOC(=O)c1ccc(C(F)(F)F)cc1Cn1c(=O)n(C)c(=O)n1C` [IV-113], the logP result is recorded as “logP = 2.58^a)”.

Consider `COC(=O)c1ccc(S(C)(=O)=O)cc1Cn1nc(SC)n(C)c1=O` [IV-114], for which the logP entry is “logP = 1.53^a)”.

As for `CCOc1nn(Cc2cc(S(C)(=O)=O)ccc2C(=O)OC)c(=O)n1C` [IV-115], the logP entry is given as “logP = 1.59^a)”.

In the case of `CCOc1nn(Cc2cc(I)ccc2C(=O)OC)c(=O)n1C` [IV-116], the logP result is listed as “logP = 2.68^a)”.

For the compound `CCOc1nn(Cc2cc(C(F)(F)F)ccc2C(=O)OC)c(=O)n1C` [IV-117], the logP entry was “logP = 2.74^a)”.

With `COC(=O)c1ccc(C(F)(F)F)cc1Cn1nc(SC)n(C)c1=O` [IV-118], the logP entry is “logP = 2.65^a)”.

For `CCOC(=O)c1ccc(C(F)(F)F)cc1Cn1nc(Br)n(C)c1=O` [IV-119], the logP entry is recorded as “logP = 2.96^a)”.

Assay in the next data set: not given
Conditions: not given
As to `Cn1c(C(F)(F)F)nn(Cc2c(Cl)ccc(C(=O)O)c2Cl)c1=O` [III-3, 4-methyl-5-trifluoromethyl-2-(2,6-dichloro-3-carboxy-benzyl)-2,4-dihydro-3H-1,2,4-triazol-3-one], the melting point amounted to 207 °C.

The values are drawn from patent US6924251B1, “Substituted benzoylcyclohexandiones” (Bayer Aktiengesellschaft, priority 1998, dated 2005).
